From patent US20200247815A1, “PYRAZOLYL-CONTAINING TRICYCLIC DERIVATIVE, PREPARATION METHOD THEREFOR AND USE THEREOF” (Jiangsu Hansoh Pharmaceutical Group Co., Ltd., priority 2017, published 2020)

Assays:
ERK-1 kinase = molecular target: T1, ERK-1 kinase (Homo sapiens, UniProt P27361); assay: Inhibition of ERK-1 kinase activity (LANCE Ultra TR-FRET); format: biochemical; conditions: ERK1 enzyme 0.4 nM, ATP 38.15 μM
T1 construct: purchased Invitrogen PV3311
In short: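 Reactions contained 0.4 nM ERK1, 0.5 μM Ulight-MBP peptide and 38.15 μM ATP in pH 7.4 Hepes/MgCl2 buffer with 4% DMSO and ran 60 minutes at room temperature. Detection used Eu-anti-p-MBP with a 665/615 nm TR-FRET ratio, normalised to DMSO and no-enzyme controls. Final concentrations were 100 nM to 0.005 nM, and IC50 came from a 4-parameter fit.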

ERK-2 kinase = molecular target: T2, ERK-2 kinase (Homo sapiens, UniProt P28482); assay: Inhibition of ERK-2 kinase activity (LANCE Ultra TR-FRET); format: biochemical; conditions: ERK-2 enzyme 0.08 nM, ATP 38.15 μM
T2 construct: purchased Invitrogen PV3313
T2 sequence (P28482 whole entry): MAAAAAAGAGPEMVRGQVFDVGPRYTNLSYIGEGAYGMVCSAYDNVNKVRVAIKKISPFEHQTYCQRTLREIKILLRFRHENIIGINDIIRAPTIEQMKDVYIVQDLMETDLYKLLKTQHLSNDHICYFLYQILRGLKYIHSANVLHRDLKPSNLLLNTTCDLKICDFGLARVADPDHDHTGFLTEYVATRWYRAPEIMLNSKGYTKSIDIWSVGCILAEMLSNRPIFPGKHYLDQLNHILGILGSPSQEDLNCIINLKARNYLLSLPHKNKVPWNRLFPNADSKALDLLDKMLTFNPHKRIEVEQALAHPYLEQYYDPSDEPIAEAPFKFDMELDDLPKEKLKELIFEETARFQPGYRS
In short: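 Recombinant ERK-2 (0.08 nM) with ULight-MBP peptide (0.5 μM) and ATP (38.15 μM) in Hepes pH 7.4 buffer, compound 100 nM to 0.005 nM final, 4% DMSO, 60 min at room temperature. Eu-anti-p-MBP TR-FRET (665/615 nm) read after EDTA stop; % inhibition versus DMSO and no-enzyme controls fitted 4-parameter for Abs_IC50.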

[1] = system: pancreatic cancer tumor cell Mia Paca 2; assay: Inhibition of tumor cell proliferation (CellTiter-Glo); format: cell-based; conditions: Homo sapiens, Miapaca-2 cell, 3-7 days
Protocol: The object of this test example is to determine the inhibition effect of the present compound on tumor cell proliferation activity. The inhibition activity of the compound on tumor cell proliferation was determined by CellTiter-Glo method, and the half inhibitory concentration IC50 of the compound for inhibiting cell proliferation activity was obtained, 50-100 μL of tumor cell suspension was inoculated in a 96-well cell culture plate with a density of 1˜5*10^4 cells/ml. The plate was incubated in an incubator for 16˜24 hours (37° C., 5% CO2). Solutions of test compounds at different concentrations obtained by gradient dilution were added to the cells in the plate. The plate was incubated in an incubator for 3-7 days (37° C., 5% CO2), 50˜100 μL of CellTiter-Glo reagent was added to each well. The plate was shaked for 10 minutes, and left to stand at room temperature for 10 minutes. The value of the chemiluminescence signal was determined by a microplate reader. The inhibition rate was calculated from the value of the chemiluminescence signal. IC50 of the compound was obtained by curve fitting based on the inhibition rate at different concentrations.
The inhibition effect of the present compound on pancreatic cancer tumor cell Mia Paca 2 proliferation activity was determined by the test, and the obtained IC50 value is shown in Table 2.

[2] = Solubility (statement, no method); format: physicochemical

T1 sequence (P27361 whole entry): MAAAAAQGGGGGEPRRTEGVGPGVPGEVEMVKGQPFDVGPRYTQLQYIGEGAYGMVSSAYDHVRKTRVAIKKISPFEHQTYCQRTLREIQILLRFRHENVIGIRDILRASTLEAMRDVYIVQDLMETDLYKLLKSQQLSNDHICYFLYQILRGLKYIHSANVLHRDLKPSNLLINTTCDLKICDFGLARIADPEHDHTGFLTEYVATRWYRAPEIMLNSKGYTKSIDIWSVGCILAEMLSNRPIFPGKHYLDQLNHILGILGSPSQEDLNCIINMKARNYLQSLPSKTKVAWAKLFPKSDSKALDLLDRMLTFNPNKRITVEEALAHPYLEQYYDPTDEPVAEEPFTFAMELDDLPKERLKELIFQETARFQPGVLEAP

SMILES | IC50 (ERK-1 kinase) [nM] | IC50 (ERK-2 kinase) [nM] | IC50 [1] [nM] | Solubility compared with ERK compounds of the prior art [2]
C[C@@H](NC(=O)c1cc2cc3c(-c4ccncc4)n[nH]c3cc2[nH]1)c1ccccc1 [Example 1, (R)—N-(1-phenylethyl)-3-(pyridin-4-yl)-1,7-dihydropyrrolo[3,2-f]indazole-6-carboxamide] | 0.29 | 0.17 | 123 | higher solubility
C[C@@H](NC(=O)c1nc2cc3c(-c4ccncc4)n[nH]c3cc2[nH]1)c1ccccc1 [Example 2, (R)—N-(1-phenylethyl)-3-(pyridin-4-yl)-1,7-dihydroimidazo[4,5-f]indazole-6-carboxamide] | 0.42 | 0.19 | 69.1 | higher solubility
